The species entered for this assay is Mus musculus. The experiment in a line: Effective concentration by cytoprotection activity on glucocorticoid-induced apoptosis in murine thymocytes was determined in vitro. Format: functional.
In general, EC50 refers to the concentration that produces a half-maximal response. Higher therefore signals lower potency in that assay. As to `Cc1ccc(C(=O)C[n+]2cccc3ccccc32)cc1`, the EC50 is more than 10 µM. The molecule `CO/N=C(/Cn1c(=O)ccc2ccccc21)c1ccc(C)cc1` displayed an EC50 of more than 10 µM. `Cc1ccc(C(=O)C[n+]2ccccc2)cc1`: the EC50 was more than 10 µM.

In turn, `CO/N=C(/C[n+]1ccccc1)c1ccc(N2CCCC2)cc1` showed an EC50 of 0.28 µM. That is a sub-micromolar value. `CO/N=C(/C[n+]1cccc2ccccc21)c1ccc(C)cc1` came in with an EC50 of 0.35 µM. The EC50 values of the last two molecules are within 1.5-fold of each other. Take `CO/N=C(/C[n+]1cccc2ccccc21)c1ccc(N2CCCC2)cc1`: the half-maximal effective concentration (EC50) was 0.013 µM.

The molecule `Cc1ccc(C(=O)Cn2c(=O)ccc3ccccc32)cc1` returned a 50% effective concentration (EC50) of more than 10 µM.

`CO/N=C(/C[n+]1ccccc1)c1ccc(C)cc1` displayed an EC50 of 5.1 µM. For `Cc1ccc(-c2cn3c4c(sc3n2)CCCC4)cc1` the value was 2.5 µM; for `CO/N=C(/Cn1c(=O)ccc2ccccc21)c1ccc(N2CCCC2)cc1`, more than 10 µM. `Cc1ccc(C(=O)Cn2c3c(sc2=N)CCCC3)cc1`: the midpoint of the response, the EC50, lay at 4.4 µM. This counts as single-digit micromolar.

The record behind these values is ChEMBL document CHEMBL1142055, “Quinolinium salt as a potent inhibitor of lymphocyte apoptosis” (Bioorg Med Chem Lett, 2005).
